Reference: PMC12804144, “Lipopeptide ligands captured by MHC class I molecules undergo dynamic conformational changes that affect their antigenic strength” (The Journal of Biological Chemistry, 2025)

What was measured:
SN45 TCR = test: Biolayer interferometry of SN45 TCR with lipopeptide-bound MHC class I complexes; format: binding, rhesus monkey
Description: Cell-based analyses may be influenced by undefined factors related to the use of live cells and serum components. Therefore, we first sought to validate the separation of the two groups at the molecular level. To this end, we investigated the kinetics of TCR–lipopeptide interactions in biolayer interferometry experiments. […] All refolded complexes were purified by size-exclusion and anion-exchange chromatography, and nearly identical elution profiles were obtained for each lipopeptide sample. […]
Figure 1 Biolayer interferometry analysis of interactions between the SN45 TCR and lipopeptide-bound Mamu-B∗05104 complexes. The molecular interaction kinetics of SN45 TCR and lipopeptide-bound Mamu-B∗05104 complexes were assessed using the Octet RED96 system, in which biotinylated SN45 TCR proteins were immobilized on streptavidin-coated sensors, and serially diluted Mamu-B∗05104 complexes were applied as analytes. […]
Biomolecular interaction analyses were performed using the Octet RED96 system equipped with a streptavidin-conjugated biosensor (Sartorius), according to the manufacturer’s instructions. […] A shift in the interference pattern was monitored in real time during this period. […]

[1] = system: J.RT3/SN45 (SN45 TCR-reconstituted Jurkat T-cell line); conditions: J.RT3/SN45 responder T cells; cited from earlier work
Description: J.RT3, a TCR-deficient Jurkat cell line, was transfected with SN45-derived TCRα and TCRβ complementary DNAs in a previous study. The SN45 TCR-reconstituted T-cell line (J.RT3/SN45) was used as responder T cells to compare antigenic activities among C14nef4-related analogs.

| Substance | antigenic group by biolayer interferometry (highly / poorly antigenic) (SN45 TCR; lipopeptide-bound Mamu-B∗05104 complex as analyte on immobilized SN45 TCR) | antigenic activity group (highly / poorly antigenic) [1] | binding to the SN45 TCR (SN45 TCR; C14nef5-bound Mamu-B∗098 complex as analyte, negative control) |
| --- | --- | --- | --- |
| C14-Gly1-Gly2-Ala3-Ile4 [C14nef4] | highly antigenic | highly antigenic | – |
| C14-Gly1-Gly2-Ala3-Ile4-Ser5 [C14nef5, reference compound] | – | – | failed to bind |
